Test results published in patent US9434735B2, “Amorphous form of 4-((4-(cyclopentyloxy)-5-(2-methylbenzo[d]oxazol-6-yl)-7h-pyrrolo[2,3-d]pyrimidin-2-yl)amino)-3-methoxy-n-methylbenzamide, compositions thereof and methods of their use” (Signal Pharmaceuticals, LLC, priority 2014, dated 2016).

Assays:
Assay type in all cases: physicochemical
[1] = Dissolution of amorphous form in reconstitution formulations
[2] = Solubility of spray-dried amorphous form in ethanol; settings: amorphous form obtained by spray-drying
Protocol: An amorphous form of Compound 1 was obtained from a spray-drying process of Compound 1 as depicted in FIG. 5. The spray-drying process comprised: (1) mixing Compound 1 with methanol at 25° C. to yield a suspension; (2) heating to 121° C.; (3) spray-drying under the conditions in Table 1 or Table 2 to yield an amorphous solid form; and (4) collecting the resulting solids. Alternatively, the spray drying process comprised: (1) mixing Compound 1 with acetone to yield a solution; (2) spray-drying under the conditions in Table 3 to yield an amorphous solid form; and (3) collecting the resulting solids.

[3] = Stability study of the amorphous form (HPLC purity, XRPD); settings: over three months; HPLC purity (FIG. 6), XRPD (FIG. 7)
Protocol: FIG. 6 depicts a stability study of the amorphous form based on its HPLC purity over 3 months. FIG. 7 depicts a stability study of the amorphous form based on its XRPD over 3 months. Solid samples were analyzed by XRPD. XRPD analysis was conducted on a PANalytical Empyrean or a Thermo ARL X'TRA X-ray powder diffractometer using Cu Kα radiation at 1.54 Å.

Dissolution Time ([1]; 17 mg amorphous Compound 1, 0.105 g EtOH, 0.656 g PEG-300, 0.239 g Saline): 1 min | Dissolution Time ([1]; #1 4.6 mL EtOH added to 700 mg amorphous Compound 1, #2 26.3 mL (25.1:1.2) PEG-300:Ethanol, #3 10.3 mL Saline): 1 min | Dissolution Time ([1]; #1 PEG-300/EtOH, #2 Saline): 9 min | Solubility in ethanol [2]: readily soluble | Stability (HPLC purity and XRPD) [3]: chemically and physically stable
SMILES: CNC(=O)c1ccc(Nc2nc(OC3CCCC3)c3c(-c4ccc5nc(C)oc5c4)c[nH]c3n2)c(OC)c1 [amorphous Compound 1, 4-((4-(cyclopentyloxy)-5-(2-methylbenzo[d]oxazol-6-yl)-7H-pyrrolo[2,3-d]pyrimidin-2-yl)amino)-3-methoxy-N-methylbenzamide]
